The values below come from ChEMBL document CHEMBL1129233, “1,3-diaryl-2-carboxyindoles as potent non-peptide endothelin antagonists” (Bioorg Med Chem Lett, 1996).

As a reminder, the IC50 is the concentration at which inhibition is half-maximal. A lower IC50 goes with greater potency.

Assay [1] has as its target T1, Endothelin-1 receptor (Homo sapiens, UniProt P25101).
T1 sequence (P25101 whole entry): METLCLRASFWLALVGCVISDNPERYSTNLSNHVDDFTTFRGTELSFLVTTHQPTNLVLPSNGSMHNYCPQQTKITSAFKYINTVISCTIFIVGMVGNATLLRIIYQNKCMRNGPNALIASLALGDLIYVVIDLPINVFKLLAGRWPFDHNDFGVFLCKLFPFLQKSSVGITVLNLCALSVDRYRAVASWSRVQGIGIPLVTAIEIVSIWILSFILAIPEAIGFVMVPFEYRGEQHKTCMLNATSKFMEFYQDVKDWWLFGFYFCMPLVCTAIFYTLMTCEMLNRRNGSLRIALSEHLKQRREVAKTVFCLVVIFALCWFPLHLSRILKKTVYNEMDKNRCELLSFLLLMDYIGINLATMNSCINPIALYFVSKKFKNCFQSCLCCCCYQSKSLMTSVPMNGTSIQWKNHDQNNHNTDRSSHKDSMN
Nature of the assay: Inhibitory concentration to the endothelin A receptor expressed in LtK cells. The assay is classed as cell-based.

The target in assay [2] is T2, Endothelin receptor type B (Homo sapiens, UniProt P24530).
T2 sequence (P24530 whole entry): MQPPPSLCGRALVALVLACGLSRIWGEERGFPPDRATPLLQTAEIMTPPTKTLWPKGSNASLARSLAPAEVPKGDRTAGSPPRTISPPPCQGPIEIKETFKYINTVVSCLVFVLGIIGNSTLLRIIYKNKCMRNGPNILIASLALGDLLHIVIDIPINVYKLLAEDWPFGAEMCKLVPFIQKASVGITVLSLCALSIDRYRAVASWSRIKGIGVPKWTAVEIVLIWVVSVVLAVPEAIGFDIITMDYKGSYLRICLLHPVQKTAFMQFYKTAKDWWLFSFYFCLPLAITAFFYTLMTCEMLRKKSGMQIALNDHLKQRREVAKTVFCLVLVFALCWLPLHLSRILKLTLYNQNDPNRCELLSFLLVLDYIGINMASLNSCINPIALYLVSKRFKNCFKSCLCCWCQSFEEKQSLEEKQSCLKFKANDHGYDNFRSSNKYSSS
Nature of the assay: Inhibitory concentration against Endothelin B receptor expressed in CHO-K1 cells. It is filed as cell-based.

The species entered for assay [3] is Oryctolagus cuniculus. Nature of the assay: Inhibition of arachidonic acid release (AAR-B) in rabbit renal artery vascular smooth muscle cells (ETA) upon stimulation with ET-1. It is filed as functional.
For assay [4], the species on record is Oryctolagus cuniculus. Nature of the assay: Ability to inhibit the release of arachidonic acid in rabbit renal artery vascular smooth muscle cells (ETA) upon stimulation with ET-1. The assay is classed as functional.
Assay [5] concerns the target Endothelin-1 receptor (Oryctolagus cuniculus). Nature of the assay: Compound was evaluated for binding affinity against rabbit Endothelin A receptor.
The target of assay [6] is T2, Endothelin receptor type B. Nature of the assay: Compound was evaluated for binding affinity against human Endothelin B receptor.
The target of assay [7] is T3, Endothelin receptor type B (Rattus norvegicus, UniProt P21451).
T3 sequence (P21451 whole entry): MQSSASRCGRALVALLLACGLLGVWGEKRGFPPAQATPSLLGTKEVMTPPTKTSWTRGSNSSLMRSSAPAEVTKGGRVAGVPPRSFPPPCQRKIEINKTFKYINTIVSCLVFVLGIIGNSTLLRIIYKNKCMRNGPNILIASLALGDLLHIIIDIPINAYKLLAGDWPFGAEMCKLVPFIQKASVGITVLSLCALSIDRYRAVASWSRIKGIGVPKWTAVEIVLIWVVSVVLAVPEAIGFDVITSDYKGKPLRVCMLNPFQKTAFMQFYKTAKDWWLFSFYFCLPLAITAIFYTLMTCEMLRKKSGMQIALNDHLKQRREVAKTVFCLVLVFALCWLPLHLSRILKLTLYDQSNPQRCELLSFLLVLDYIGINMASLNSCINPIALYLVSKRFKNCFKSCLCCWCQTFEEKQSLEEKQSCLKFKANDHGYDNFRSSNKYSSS
Nature of the assay: Compound was evaluated for binding affinity against rat Endothelin B receptor; inactive.

Values joined by “and” are separate entries in the source; they are usually repeats but may differ in a detail not shown here. Identical values can stand only once.

Consider `COc1ccc2c(c1)c(-c1ccc3c(c1)OCO3)c(C(=O)O)n2-c1ccc2c(c1)OCO2`, for which the IC50 in assay [1] was 260 nM; in assay [2] it was 15000 nM.

Take `CCCOc1ccc2c(c1)c(-c1ccc3c(c1)OCO3)c(C(=O)O)n2Cc1ccc2c(c1)OCO2`: the IC50 in assay [1] is 130 nM and 80 nM; in assay [2] it was 1100 nM and 850 nM.

`COc1cc2c(-c3ccc4c(c3)OCO4)c(C(=O)O)n(Cc3ccc4c(c3)OCO4)c2cc1OC` gave an IC50 in assay [1] of 60 nM.

With `COc1ccc2c(-c3ccc4c(c3)OCO4)c(C(=O)O)n(-c3ccccc3)c2c1`, the values for the IC50 in assay [1] and in assay [2] were 7400 nM and more than 25000 nM, respectively.

In the case of `COc1ccc(-c2c(C(=O)O)n(-c3ccc4c(c3)OCO4)c3ccc(OCc4ccccc4)cc23)cc1`, the IC50 in assay [1] was 2400 nM; in assay [2], 21000 nM.

`CCCOc1ccc2c(c1)c(-c1ccc3c(c1)OCO3)c(C(=O)O)n2-c1ccc2c(c1)OCO2`: the IC50 in assay [1] was determined as 43 nM; in assay [2] it was 12000 nM.

On to `O=C(O)c1c(-c2ccc3c(c2)OCO3)c2ccccc2n1-c1ccc2c(c1)OCO2`, for which the IC50 in assay [1] is 4100 nM; in assay [2], 22000 nM.

For `O=C(O)c1c(-c2ccc3c(c2)OCO3)c2cc(OCc3ccccc3)ccc2n1-c1ccc2c(c1)OCO2`, the IC50 in assay [1] turned out to be 1300 nM; in assay [2] it was 14000 nM.

For the compound `COc1ccc2c(c1)c(-c1ccc3c(c1)OCO3)c(C(=O)O)n2-c1ccccc1`, the IC50 in assay [1] is 12000 nM; in assay [2], more than 25000 nM.

In the case of `O=C(O)c1c(-c2ccc3c(c2)OCO3)c2cc3c(cc2n1Cc1ccc2c(c1)OCO2)OCO3`, the values for the IC50 in assay [1] and in assay [2] were 240 nM and 670 nM, respectively.

`COc1ccc2c(c1)c(-c1ccc3c(c1)OCO3)c(C(=O)O)n2Cc1ccc2c(c1)OCO2`: the IC50 in assay [1] stood at 350 nM; in assay [2] it was 2400 nM.

As to `COc1ccc2c(c1)c(-c1ccc(OC)c(OC)c1)c(C(=O)O)n2-c1ccc2c(c1)OCO2`, the IC50 in assay [1] was 1500 nM; in assay [2], more than 25000 nM.

`COc1cc2c(-c3ccc4c(c3)OCO4)c(C(=O)O)n(-c3ccc4c(c3)OCO4)c2cc1OC`: the IC50 in assay [1] came to 80 nM; in assay [2], 7000 nM.

In the case of `COc1cc2c(-c3ccc4c(c3)OCO4)c(C(=O)O)n(Cc3ccc4c(c3)OCO4)c2cc1OCc1ccccc1`, the results for the IC50 in assay [3], in assay [1] and in assay [2] were 230 nM, 30 nM and 50 nM, respectively.

Consider `COc1ccc(-n2c(C(=O)O)c(-c3ccc4c(c3)OCO4)c3ccccc32)cc1`, for which the IC50 in assay [1] is 2300 nM; in assay [2], more than 25000 nM.

Turning to `CCCOc1ccc2c(-c3ccc4c(c3)OCO4)c(C(=O)O)n(Cc3ccc4c(c3)OCO4)c2c1`, the IC50 was determined as 480 nM in assay [4], 47 nM in assay [1] and 5600 nM in assay [2].

In the case of `O=C(O)c1c(-c2ccc3c(c2)OCO3)c2cc(Cl)ccc2n1-c1ccccc1`, the IC50 in assay [1] is 10000 nM; in assay [2], more than 25000 nM.

`O=C(O)c1c(-c2ccc3c(c2)OCO3)c2ccccc2n1Cc1ccccc1`: the half-inhibitory concentration (IC50) in assay [1] worked out at 11000 nM; in assay [2] it was 14500 nM.

With `COc1ccc(-c2c(C(=O)O)n(Cc3ccc4c(c3)OCO4)c3cc(OC)c(OC)cc23)cc1OC`, the values for the IC50 in assay [1] and in assay [2] were 60 nM and 850 nM, respectively.

With `O=C(O)c1c(-c2ccc3c(c2)OCO3)c2cc(OCc3ccccc3)ccc2n1Cc1ccc2c(c1)OCO2`, the IC50 was 800 nM in assay [1] and 2500 nM in assay [2].

On to `CC(C)Oc1c(C(=O)O)sc2ccc(OCc3ccccc3)cc12`, for which the IC50 in assay [5] was 6000 nM; in assay [6] it was more than 100000 nM; in assay [7], “Not Active”.

Turning to `COc1cccc(-c2c(C(=O)O)n(-c3ccc4c(c3)OCO4)c3ccc(OC)cc23)c1`, the IC50 in assay [1] is 5500 nM; in assay [2], more than 25000 nM.

With `O=C(O)c1c(-c2ccc3c(c2)OCO3)c2ccccc2n1Cc1ccc2c(c1)OCO2`, the IC50 in assay [1] was found to be 1500 nM; in assay [2], 3300 nM.

Take `COc1ccc(-c2c(C(=O)O)n(-c3ccc4c(c3)OCO4)c3ccc(OC)cc23)cc1`: the IC50 in assay [1] was 1100 nM; in assay [2], more than 25000 nM.

Consider `COc1ccc(-n2c(C(=O)O)c(-c3ccc4c(c3)OCO4)c3cc(OC)ccc32)cc1`, for which the IC50 in assay [1] is 3500 nM; in assay [2], more than 25000 nM.

In the case of `COc1ccc(Cn2c(C(=O)O)c(-c3ccc4c(c3)OCO4)c3cc(OCc4ccccc4)ccc32)cc1`, the IC50 in assay [1] was determined as 2700 nM; in assay [2], 4400 nM.
